Laboratory results published in patent publication US20210047278A1, “E3 UBIQUITIN LIGASE AGONISTS, PHARMACEUTICAL COMPOSITIONS INCLUDING THE E3 UBIQUITIN LIGASE AGONISTS, RELATED METHODS OF USE” (FRED HUTCHINSON CANCER RESEARCH CENTER, priority 2018, published 2021).
Like-named read-outs stand apart in the source and are kept apart here.

Assays:
Format in all cases: binding
FBW7^ARG+pCycE = target: T1, FBW7^ARG+pCycE (Homo sapiens, UniProt Q969H0, R505L); assay: FBW7^ARG-cyclin E agonist ALPHAscreen (primary PRUN, confirmation CRUN1, dose-response DRUN); settings: for EC50 / Emax: DRUN dose-response; for Emax: relative to WT-FBW7+pCycE, read-out: FBW7 ACT Averaged Max % Response
T1 construct: GST (TEV site and flexible linker) (N, cleaved yes); made in house; host or cells: SF9 insect cells (baculovirus)
Source text: FBW7^ARG refers to a class of loss-of-function mutations of the of FBW7 ubiquitin ligase that target a key phosphate-binding arginine residue in the FBW7 substrate-binding domain. These mutations are commonly found in human cancers and promote tumorigenesis by impairing the interactions between FBW7 and its substrates, such as cyclin E and Myc. Described herein is a high throughput screen (HTS) to identify agonists, such as small molecules, that augment FBW7^ARG-substrate binding. In an embodiment, the HTS is based on the Amplified Luminescent Proximity Homogenous Assay (ALPHAscreen) because it detects protein-protein interactions with a large dynamic range. ALPHAscreen is a bead-based proximity assay wherein donor beads contain a photosensitizer, phthalocyanine, and acceptor beads contain thioxene, anthracene and rubrenein in sufficient quantities to generate a chemiluminescence/fluorescence reaction (FIG. 4A). Upon excitation with excitation illumination, such as light having a wavelength of 680 nm, of the donor beads, phthalocyanine converts ambient oxygen to singlet oxygen, which can diffuse approximately 200 nm within its 4-microsecond half-life. If an acceptor bead is in close proximity to an excited donor bead, singlet oxygen transfers its energy to the acceptor, resulting in emitted light at a broad bandwidth of −520-620 nm. The HTS-compatible FBW7/cyclin E ALPHAscreen assay described herein uses streptavidin coupled donor beads and Ni-chelate acceptor beads. In this assay, biotinylated cyclin E phosphopeptide and the His-tagged FBW7 mutant protein have high affinity for the donor and acceptor beads, respectively (FIG. 4B). A small molecule that is able to bridge the binding sites of the peptide and the mutant protein (or induce a conformational change that increases affinity of the protein for the peptide) will bring the donor and acceptor beads in close proximity to each other, resulting in an ALPHA signal. As designed, this assay format is a very sensitive, non-radioactive, homogenous “mix-and-read” format that is HT compatible in 384 and 1536 well formats.
In the 384-well screening assay, 10 uL of acceptor beads with 25 nM of the FBW7^ARG (RLFBW7) are dispensed to test wells; acceptor beads with 25 nM of the wt-FBW7 protein (WTFBW7) are dispensed to control wells. Test compounds are then added by pintool transfer and the mixture is incubated for 30 minutes. An additional 10 uL of donor beads with 25 nM cyclin E phosphopeptide is then added to all wells and the plate is incubated for 4 hours before the ALPHA signal is measured.
In preparation for large-scale screening, the assay was miniaturized to a 1536-well format. The miniaturized screen performed outstandingly in all respects. The screen was enhanced with respect to several parameters and assayed its performance using mutant FBW7 and wt-FBW7, as well as non-specific assay agonists. […] For example, the following Z′-scores/FBW7 concentrations were obtained: 6.25 nM/Z′=0.62, 12.5 nm/Z′=0.85, 25.0 nM/Z′=0.84.
1. Add 2.5 uL of RLFBW7/cycE˜P/Ni beads: Final [25 nM/25 nM/10 ug/ml].
2. Add 2.5 uL of WTFBW7/cycE˜P/Ni beads: Final [25 nM/25 nM/10 ug/ml].
4. Add 2.5 uL of SA beads to all wells Final [10 ug/ml],
5. Add 30 nL of compounds,
6. Read ALPHAscreen on Envision
The large-scale FBW7 agonist ALPHAscreen was completed using FBW7^ARG and a phosphorylated cyclin E (pCycE) degron peptide. Wt-FBW7+pCycE-peptide was the “high control”, and Wt-FBW7+unphosph. CycE peptide was the “low control”. The screen was performed on the 645,000-compound Scripps Diversity Library using 1536-well format and drug concentrations of 26.1 μM. An algorithm aided hit identification based on the average percent activation for all compounds and their standard deviation.
A confirmation assay of all 853 compounds in triplicate using a single concentration (26.1 μM). […]

pCycE alone = assay: Counterscreen 2 ALPHAscreen with cyclin E phosphopeptide alone (CSRUN2/DCSRUN2); settings: for CyCEP ACT DCSRUN2 Averaged Max % Response: activation relative to WT-FBW7+pCycE, averaged maximum; for EC50: dose-response, triplicate, 10 point 3-fold dilutional series, read-out: CyCEP ACT DCSRUN2 Final EC50
Method: (§1) Studies in 384-well format were performed using the ENVISION system. Reagent concentrations (see FIG. 6A), order of addition, pH (see FIG. 6B), and reducing agent were altered with the goal of enhancing the dynamic range between wt-FBW7 (the positive control) and FBW7^ARG (FIG. 6 and not shown). Wt-FBW7 produced a signal 100× greater with phosphorylated cyclin E degron peptide compared with unphosphorylated, which represents the assay's maximum range (FIG. 6C). […] This assay thus detects the residual affinity of the FBW7^ARG-substrate interaction, which, as predicted, is stronger than wt-FBW7 protein with unphosphorylated cyclin E peptide. Concurrent with this primary assay, counter ALPHAscreens were developed which omitted either FBW7 or peptide (to eliminate hits that are general ALPHAscreen agonists), or used an irrelevant phosphopeptide (to eliminate compounds that simply augment binding to phosphopeptides). […]
(§2) The 77 hits were subjected to a dose-response assay in which each compound was tested in triplicate in a 10 point 3-fold dilutional series, to a maximum concentration of approximately 87 μM. Three screens were performed, using FBW7^ARG+pCycE (DRUN), FBW7^ARG (DCSRUN1), or pCycE alone (DCSRUN2). See TABLES 2, 3, and 4, respectively, and FIG. 10A. All of the assays performed extremely well, and threshold of 10% activation (relative to WT-FBW7+pCycE) was set as positive. […] Many hits fell into shared structure cluster ID groups, reinforcing the idea that they function as specific agonists (see below and TABLE 5).

FBW7^ARG (RLFBW7) alone = target: T2, FBW7^ARG (RLFBW7) alone (Homo sapiens, UniProt Q969H0, R505L); assay: Counterscreen 1 ALPHAscreen with FBW7^ARG alone (CSRUN1/DCSRUN1); settings: dose-response counterscreen; for Emax: read-out: RLFBW7 ACT DCSRUN1 Averaged Max % Response
T2 construct: GST (TEV site and flexible linker) (N, cleaved yes); made in house; host or cells: SF9 insect cells (baculovirus)
Method: as §1, §2

[1] = raw curve fit, read-out: FBW7 ACT EC50 Curve Fit Raw, Molar
[2] = triplicate, 10 point 3-fold dilution, max approx. 87 μM, read-out: FBW7 ACT Final EC50, Molar
[3] = confirmation assay, triplicate, single concentration 26.1 μM, read-out: FBW7 ACT CRUN1 Avg % Response and Stdev
[4] = primary screen, 1536-well, 26.1 μM, FBW7^ARG + pCycE degron peptide, high control wt-FBW7+pCycE, read-out: FBW7 ACT PRUN % Response
[5] = raw curve fit, read-out: RLFBW7 ACT DCSRUN1 EC50 Curve Fit Raw
[6] = read-out: RLFBW7 ACT DCSRUN1 Final EC50

T2 sequence (Q969H0 64-707 R505L): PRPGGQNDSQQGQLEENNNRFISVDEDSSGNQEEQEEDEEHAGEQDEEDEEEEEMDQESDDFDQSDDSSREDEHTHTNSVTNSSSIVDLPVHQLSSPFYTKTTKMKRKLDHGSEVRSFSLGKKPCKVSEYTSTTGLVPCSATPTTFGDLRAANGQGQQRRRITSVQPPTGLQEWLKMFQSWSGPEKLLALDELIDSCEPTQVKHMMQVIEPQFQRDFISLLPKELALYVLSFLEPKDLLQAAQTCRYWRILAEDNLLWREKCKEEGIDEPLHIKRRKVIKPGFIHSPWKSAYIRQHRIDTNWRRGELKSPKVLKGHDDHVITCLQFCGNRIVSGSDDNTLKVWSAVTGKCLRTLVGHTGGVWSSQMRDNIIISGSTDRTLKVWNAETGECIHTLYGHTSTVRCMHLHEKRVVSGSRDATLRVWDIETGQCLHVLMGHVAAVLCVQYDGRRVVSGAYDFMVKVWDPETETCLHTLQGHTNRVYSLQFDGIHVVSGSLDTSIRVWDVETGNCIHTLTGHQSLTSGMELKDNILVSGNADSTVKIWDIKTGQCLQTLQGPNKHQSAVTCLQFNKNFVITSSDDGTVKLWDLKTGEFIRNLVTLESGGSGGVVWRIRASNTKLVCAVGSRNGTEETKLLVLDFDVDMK
T2 sequence (P63208 2-163 partner): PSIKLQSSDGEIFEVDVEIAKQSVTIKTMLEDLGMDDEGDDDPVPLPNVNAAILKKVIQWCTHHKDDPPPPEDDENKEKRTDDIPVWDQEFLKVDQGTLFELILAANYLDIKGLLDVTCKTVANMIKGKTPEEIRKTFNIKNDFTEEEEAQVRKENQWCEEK
T1 sequence (Q969H0 64-707 R505L): as the sequence (Q969H0 64-707 R505L) above
T1 sequence (P63208 2-163 partner): as the sequence (P63208 2-163 partner) above

SMILES | EC50 (FBW7^ARG+pCycE; [1]) | Emax (FBW7^ARG+pCycE) | EC50 (FBW7^ARG+pCycE; [2]) | activation at 26.1 µM (FBW7^ARG+pCycE; [3]) | activation at 26.1 µM (FBW7^ARG+pCycE; [4]) | CyCEP ACT DCSRUN2 Averaged Max % Response (pCycE alone) | EC50 (pCycE alone) | EC50 (FBW7^ARG (RLFBW7) alone; [5]) | Emax (FBW7^ARG (RLFBW7) alone) | EC50 (FBW7^ARG (RLFBW7) alone; [6])
CCOC(=O)C1CCN(C(=O)Nc2ccc(NC(=O)C3CCN(C(=O)OCC)CC3)cc2)CC1 [SR-01000451467-1] | 9.6 µM | 15.5% | > 45.3 µM | 5.81 ± 0.4% | 6.08% | 2.82% | > 45.3 µM | 0.0074 µM | 1.76% | > 45.3 µM
CN(C)CC[S+]([O-])c1cc(-c2cn[nH]c2)ccc1NC(=O)[C@@H]1Cc2cc(F)ccc2CN1.O=C(O)C(F)(F)F (stereo partly drawn) [SR-00000005398-1] | 9.2 µM | 12.9% | > 65.3 µM | 2.28 ± 0.37% | 1.91% | 0.21% | > 65.3 µM | 0.0925 µM | 0.77% | > 65.3 µM
O=C([C@H]1CC[C@H](Nc2nccc(-c3ccc4nc(C5CC5)nc(O)c4c3)n2)CC1)N1CCCC1 [SR-00000008677-1] | – | 35.9% | > 65.3 µM | 4.42 ± 0.03% | 2.63% | – | – | 0.0572 µM | 0.06% | > 65.3 µM
COc1ccc(NC(=O)c2cc(S(=O)(=O)N3CCN(c4ccccn4)CC3)ccc2F)cc1 [SR-01000579121-1] | 0.0032 µM | 11.6% | > 54.6 µM | 2.82 ± 0.29% | 1.87% | – | – | – | 1.99% | > 54.6 µM
O=C(NCc1ccc(C(=O)NCCc2ccccn2)cc1)Nc1ccc(-c2cn[nH]c2)cc1 [SR-00000005517-1] | 31.5 µM | 20% | > 65.3 µM | 4.71 ± 0.2% | 1.94% | – | – | 28.3 µM | 100% | 28.2 µM
COc1cc2c(cc1OC)C(COc1ccc([N+](=O)[O-])cc1)N(C(=O)c1ccc3c(c1)OCO3)CC2 (stereo not drawn) [SR-01000568734-1] | 9.2 µM | 16% | > 49.8 µM | 3.13 ± 0.23% | 2.1% | – | – | – | 1.58% | > 49.8 µM
COc1ccccc1N1C(=O)c2ccc(C(=O)Nc3cc([N+](=O)[O-])ccc3O)cc2C1=O [SR-01000236956-1] | 22.1 µM | 10.6% | > 65.3 µM | 3.72 ± 0.2% | 2.14% | – | – | 21.2 µM | 2.25% | > 65.3 µM
O=C(Nc1ccc2oc(-c3ccc4ccccc4c3)nc2c1)c1cccc(Cl)c1Cl [SR-01000415504-1] | 0.0458 µM | 7.3% | > 56.6 µM | 10.7 ± 0.62% | 1.88% | – | – | 0.136 µM | -0.031% | > 56.6 µM
Cc1ccnc(N2CCC(C(=O)Nc3ccccc3Br)CC2)n1 [SR-01000330228-1] | 0.0482 µM | 6.46% | > 65.3 µM | 3.43 ± 0.23% | 2.08% | – | – | – | 0.25% | > 65.3 µM
CCc1ccc(N2CC(C(=O)NCC(C)(C)CNC(=O)C3CC(=O)N(c4ccc(CC)cc4)C3)CC2=O)cc1 (stereo not drawn) [SR-01000537224-1] | 7.1 µM | 16.5% | > 40.4 µM | 7.38 ± 0.72% | 4.51% | – | – | 0.0053 µM | 2.4% | > 40.4 µM
Cc1cccc(CC(=O)Nc2cnn(-c3cccc(C(=O)N4CCNC(=O)CC4)c3)c2)c1 [SR-01000188911-1] | 7.5 µM | 23.6% | > 65.3 µM | 2.88 ± 0.43% | 4.34% | – | – | 1.7 µM | -0.141% | > 65.3 µM
CCCOC(=O)C1=C(C)N(CC)C(=O)NC1c1ccccc1[N+](=O)[O-] (stereo not drawn) [SR-01000417871-1] | 8.6 µM | 17.3% | > 67.2 µM | 18.3 ± 0.97% | 2.55% | – | – | 2.8 µM | 0.3% | > 67.2 µM
